Here are results for two compounds from ChEMBL document CHEMBL3407397, “Effect of size and N-terminal residue characteristics on bacterial cell penetration and antibacterial activity of the proline-rich peptide Bac7” (J Med Chem, 2015).

The test system of data set [1] is Escherichia coli. The data set can be described thus: Drug uptake in O-antigen lacking LPS containing wild type Escherichia coli BW25113 at 1 uM up to 3.5 hrs in presence of trypan blue quencher. It is filed as ADME, organism-based. To be noted: in vivo.
The subject of data set [2] is Escherichia coli. Put plainly: Bacteriostatic activity against O-antigen lacking LPS containing wild type Escherichia coli BW25113 at 4 uM incubated for 3.5 hrs. Format: functional, organism-based.
Data set [3] concerns Escherichia coli. Put plainly: Antimicrobial activity against Escherichia coli ATCC 25922 incubated for 18 hrs at 37 degC by broth microdilution method. Format: functional. Conditions: ATCC 25922, 18 h.
For data set [4], the system named is Escherichia coli. The data set can be described thus: Drug uptake in delta-waaG deletion mutant containing Escherichia coli BW25113 at 4 uM up to 3.5 hrs in presence of trypan blue quencher. It is filed as ADME, organism-based. Conditions: in vivo.
Data set [5] relates to Escherichia coli. The data set can be described thus: Bacteriostatic activity against delta-waaG deletion mutant containing wild type Escherichia coli BW25113 at 4 uM incubated for 3.5 hrs. It is filed as functional, organism-based.
Data set [6] has as its system Escherichia coli. The data set can be described thus: Antimicrobial activity against delta-sbmA deletion mutant containing Escherichia coli BW25113 incubated for 18 hrs at 37 degC by broth microdilution method. It is filed as functional. To be noted: BW25113, 18 h.
The test system of data set [7] is Escherichia coli. The data set can be described thus: Antimicrobial activity against delta-waaG deletion mutant containing Escherichia coli BW25113 incubated for 18 hrs at 37 degC by broth microdilution method. Format: functional. Conditions: BW25113, 18 h.
Data set [8] relates to Escherichia coli. The data set can be described thus: Antimicrobial activity against O-antigen lacking LPS containing wild type Escherichia coli BW25113 incubated for 18 hrs at 37 degC by broth microdilution method. It is filed as functional. Conditions: BW25113, 18 h.
The test system of data set [9] is Escherichia coli. The data set can be described thus: Bactericidal activity against O-antigen lacking LPS containing wild type Escherichia coli BW25113 assessed as bacterial killing at 4 uM incubated for 3.5 hrs. It is filed as functional, organism-based.
Data set [10] relates to Escherichia coli. The data set can be described thus: Antimicrobial activity against Escherichia coli HB101 incubated for 18 hrs at 37 degC by broth microdilution method. It is filed as functional. Conditions: HB101, 18 h.
The subject of data set [11] is Escherichia coli. Put plainly: Bactericidal activity against delta-waaG deletion mutant containing wild type Escherichia coli BW25113 assessed as bacterial killing at 4 uM incubated for 3.5 hrs. Format: functional, organism-based.
The test system of data set [12] is Escherichia coli. The data set can be described thus: Drug uptake in O-antigen lacking LPS containing wild type Escherichia coli BW25113 up to 32 uM incubated for 60 mins by propidium iodide staining based cytofluorimetric method. It is filed as ADME, organism-based. Conditions: in vivo, 1 h.

Molecules are shown by their SMILES. Converted amounts (≈) assume the structure as drawn. The source made the active and inactive calls. The calls are words filed in the database; no cut-off is given here. Non-standard residues stand in square brackets, D forms with d. Residues, ends and D or L forms follow the SMILES beside them. Cit = NC(=O)NCCC[C@H](N)C(=O)O

Take `CC[C@H](C)[C@H](NC(=O)[C@H](CCCNC(N)=O)NC(=O)[C@@H](N)CCCNC(N)=O)C(=O)N[C@@H](CCCNC(=N)N)C(=O)N1CCC[C@H]1C(=O)N[C@@H](CCCNC(=N)N)C(=O)N1CCC[C@H]1C(=O)N1CCC[C@H]1C(=O)N[C@@H](CCCNC(=N)N)C(=O)N[C@@H](CC(C)C)C(=O)N1CCC[C@H]1C(=O)N[C@@H](CCCNC(=N)N)C(=O)N1CCC[C@H]1C(=O)N[C@@H](CCCNC(=N)N)C(=O)N1CCC[C@H]1C(=O)N[C@@H](CCCNC(=N)N)C(=O)N1CCC[C@H]1C(=O)N[C@@H](CC(C)C)C(=O)N1CCC[C@H]1C(=O)N[C@@H](Cc1ccc(O)cc1)C(=O)N1CCC[C@H]1C(=O)N[C@@H](CCCNC(=N)N)C(=O)N1CCC[C@H]1C(=O)O` (H-[Cit][Cit]IRPRPPRLPRPRPRPLPYPRP-OH): the Drug uptake entry in the data set with Escherichia coli [1] and in the data set with Escherichia coli [4] was “Active” each time. The result in the data set on Escherichia coli [2] and in the data set with Escherichia coli [5] was Active. Further, the minimum inhibitory concentration (MIC) was 32 µM (≈ 92.8 µg/mL) against Escherichia coli [3], greater than 64 µM with Escherichia coli [6], 8 µM (≈ 23.2 µg/mL) in the data set on Escherichia coli [7] and 32 µM (≈ 92.8 µg/mL) with Escherichia coli [8].
For `CC[C@H](C)[C@H](NC(=O)[C@H](CCCNC(=N)N)NC(=O)[C@@H](N)CCCNC(=N)N)C(=O)N[C@@H](CCCNC(=N)N)C(=O)N1CCC[C@H]1C(=O)N[C@@H](CCCNC(=N)N)C(=O)N1CCC[C@H]1C(=O)N1CCC[C@H]1C(=O)N[C@@H](CCCNC(=N)N)C(=O)N[C@@H](CC(C)C)C(=O)N1CCC[C@H]1C(=O)N[C@@H](CCCNC(=N)N)C(=O)N1CCC[C@H]1C(=O)N[C@@H](CCCNC(=N)N)C(=O)N1CCC[C@H]1C(=O)N[C@@H](CCCNC(=N)N)C(=O)N1CCC[C@H]1C(=O)N[C@@H](CC(C)C)C(=O)N1CCC[C@H]1C(=O)N[C@@H](Cc1ccc(O)cc1)C(=O)N1CCC[C@H]1C(=O)N[C@@H](CCCNC(=N)N)C(=O)N1CCC[C@H]1C(=O)O`, the MIC worked out at 0.5 µM (≈ 1.45 µg/mL) in the data set on Escherichia coli [3]; 0.5 µM (≈ 1.45 µg/mL) in the data set with Escherichia coli [10]; 8 µM (≈ 23.2 µg/mL) against Escherichia coli [6]; 0.5 µM (≈ 1.45 µg/mL) in the data set on Escherichia coli [7]; 1 µM (≈ 2.9 µg/mL) with Escherichia coli [8]. In addition, the result in the data set on Escherichia coli [9] and in the data set with Escherichia coli [11] was Active. In the data set on Escherichia coli [12], the Drug uptake result is “Not Active”.
